From patent US8809280B2, “Therapeutic peptides” (Lytix Biopharma AS, priority 2009, dated 2014)
Converted amounts (≈) assume the structure as drawn. Where two headings read alike, the source gives them in different places.

Experiments:
[1] = test system: Staphylococcus aureus (ATTC 25923); assay: microbe, parasite or virus in culture; assay type: cell-based; conditions: for MIC: read-out: MIC S. aureus
Summary of the method: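 Di-TFA salts tested in duplicate at 0.5–200 μg/ml against exponential-phase bacteria at 2×10^6 cfu/ml grown in 2% peptone water. Growth judged by well turbidity, with no-peptide and gentamicin controls.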

[2] = test system: methicillin resistant Staphylococcus aureus (ATCC 33591); assay: microbe, parasite or virus in culture; assay type: cell-based; conditions: for MIC: read-out: MIC MTRSA
Summary of the method: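 Di-TFA salts tested in duplicate at 200 down to 0.5 μg/ml against exponentially grown bacteria at 2×10^6 cfu/ml. Growth judged by well turbidity, with no-peptide and gentamicin controls.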

[3] = test system: methicillin resistant Staphylococcus epidermidis (ATCC 27626); assay: microbe, parasite or virus in culture; assay type: cell-based; conditions: for MIC: read-out: MIC MRSE
Summary of the method: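 Exponentially grown bacteria (2% peptone water) at 2×10^6 cfu/ml exposed in duplicate to di-TFA salts at 0.5–200 μg/ml. Growth or no growth judged by well turbidity; no-peptide and gentamicin controls included.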

[4] = test system: Pseudomonas aeruginosa (ATCC 27853); assay: microbe, parasite or virus in culture; assay type: cell-based; conditions: for MIC: read-out: MIC P. aeruginosa
Protocol: Each compound was tested in duplicates at 200, 100, 50, 35, 15, 10, 5, 2.5, 1, 0.5 μg/ml. All tested compounds were di-trifluoroacetic acid salts.

human red blood cells = assay: cells; assay type: cell-based
Summary of the method: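 Washed heparinized RBCs, diluted to 10% hematocrit then to 1% v/v final, incubated with compounds in PBS (1–1000 μg/mL) for 1 h at 37 °C with agitation. Hemoglobin release read at 405 nm against PBS (0%) and 0.1% Triton X-100 (100%); value reported is concentration giving 50% hemolysis.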

[5] = test system: Escherichia coli (ATTC 25922); assay: microbe, parasite or virus in culture; assay type: cell-based; conditions: for MIC: read-out: MIC E. coli
Summary of the method: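 Broth dilution in 2% Bacto Peptone water, inoculum 2×10^6 cfu/ml of exponential-phase bacteria; compounds (di-TFA salts) tested in duplicate at 200 down to 0.5 μg/ml. Growth judged by well turbidity, with no-peptide negative and gentamicin positive controls.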

α-chymotrypsin = α-chymotrypsin (Bos taurus, UniProt P00766, DEL14-15/DEL147-148); assay: Stability against α-chymotrypsin; assay type: in vitro ADME; conditions: over a period of 48 hours
Protocol: The stability testing against α-chymotrypsin was conducted by dissolving the desired compounds to 1 mg/ml in water. α-Chymotrypsin was dissolved to 0.1 mg/ml in 1 mM HCl containing 2 mM CaCl2. The enzymatic digestion was performed in 100 mM TRIS HCl containing 10 mM CaCl2. Final enzyme concentration was 2 μg/ml, and final peptide concentration was 100 μg/ml. Total volume was 0.5 ml.
15 μl samples were collected at 0, 15, 30, 60, 120 and 240 min in addition to the 24 and 48 hours samples. To the samples it was added an external standard (atenolol hydrochloride) and 100 μl 10% acetic acid to terminate digestion before it was diluted to 1 ml with water.
For every test there were done a negative control without enzyme to ensure that degradation was due to enzyme activity and not other factors. Succinyl-ala-ala-pro-phe-para nitroanhiine was used as positive control. All test were run in triplicates.

[6] = Staphylococcus aureus, ATCC25923, Example 4, ATCC 25923, di-trifluoroacetate salts, highest concentration tested 200 μg/ml
[7] = Staphylococcus aureus, ATCC33591, Example 4, ATCC 33591, di-trifluoroacetate salts, highest concentration tested 200 μg/ml
[8] = Staphylococcus epidermidis, ATCC 27626 / MRSE, Example 4, ATCC 27626, di-trifluoroacetate salts, highest concentration tested 200 μg/ml
[9] = Pseudomonas aeruginosa, ATCC27853, Example 4, ATCC 27853, di-trifluoroacetate salts, highest concentration tested 200 μg/ml
[10] = Erythrocyte, Example 4, hemolytic activity, human red blood cells, highest concentration tested 1000 μg/ml, read-out: EC50 RBC
[11] = Escherichia coli, ATCC25922, Example 4, ATCC 25922, di-trifluoroacetate salts, highest concentration tested 200 μg/ml

Row | SMILES | MIC ([1]; ATTC 25923) | MIC ([3]; ATCC 27626) | MIC ([5]; ATTC 25922) | MIC [1, 6] | MIC [2, 7] | MIC [3, 8] | MIC [4, 9] | MIC [5, 11] | MIC MRSA ([2]; ATCC 33591) | proteolytic stability against α-chymotrypsin (α-chymotrypsin) | MBC S. aureus ([1]; ATTC 25923) | MBC MRSA ([2]; ATCC 33591) | MBC MRSE ([3]; ATCC 27626) | MBC E. coli ([5]; ATTC 25922) | Therapeutic index S. aureus ([1]; EC50 RBC divided by MIC) | Therapeutic index MRSA ([2]; EC50 RBC divided by MIC) | Therapeutic index MRSE ([3]; EC50 RBC divided by MIC) | Therapeutic index P. aeruginosa ([4]; EC50 RBC divided by MIC) | EC50 (human red blood cells; [10]) | Therapeutic index E. coli ([5]; EC50 RBC divided by MIC) | other results
1 | CN(C)CCN1CCN(C(=O)C(CN)(Cc2ccc(C(C)(C)C)cc2)Cc2ccc(C(C)(C)C)cc2)CC1 [Compound 4d] | 13 µM (≈ 6.77 µg/mL) | 13 µM (≈ 6.77 µg/mL) | 13 µM (≈ 6.77 µg/mL) |  |  |  |  |  |  |  | >307 µM | >307 µM | >307 µM | >307 µM |  |  |  |  |  |  | Therapeutic index S. aureus ([1]; ATTC 25923): 26; MIC S. aureus ([1]; Example 1, ATTC 25923, di TFA salts, highest concentration tested 200 μg/ml): — (The notation “—”denotes no detectable activity (MIC or EC50) within the concentration range tested.); Therapeutic index MRSA ([2]; ATCC 33591): 26; MIC ([2]; ATCC 33591): 13 µM (≈ 6.77 µg/mL); MIC MRSA ([2]; Example 1, ATCC 33591, di TFA salts, highest concentration tested 200 μg/ml): — (The notation “—”denotes no detectable activity (MIC or EC50) within the concentration range tested.); Therapeutic index MRSE ([3]; ATCC 27626): 26; MIC MRSE ([3]; Example 1, ATCC 27626, di TFA salts, highest concentration tested 200 μg/ml): — (The notation “—”denotes no detectable activity (MIC or EC50) within the concentration range tested.); Therapeutic index P. aeruginosa ([4]; ATCC 27853): 1.3; MIC ([4]; ATCC 27853): 255 µM (≈ 133 µg/mL); EC50 (human red blood cells; red cells of human): 337 µM; Therapeutic index E. coli ([5]; ATTC 25922): 26; MIC E. coli ([5]; Example 1, ATTC 25922, di TFA salts, highest concentration tested 200 μg/ml): — (The notation “—”denotes no detectable activity (MIC or EC50) within the concentration range tested.)
2 | CC(C)(C)c1ccc(CC(CN)(Cc2ccc(C(C)(C)C)cc2)C(=O)N[C@@H](CCCNC(=N)N)C(N)=O)cc1 [Compound 4k] | 6.5 µM (≈ 3.49 µg/mL) | 5.0 µM (≈ 2.68 µg/mL) | 46 µM (≈ 24.7 µg/mL) |  |  |  |  |  | 3.3 µM (≈ 1.77 µg/mL) | no degradation could be detected | 6.5 µM (≈ 3.49 µg/mL) | 6.5 µM (≈ 3.49 µg/mL) | 5.2 µM (≈ 2.79 µg/mL) | 46 µM (≈ 24.7 µg/mL) |  |  |  |  |  |  | 
3 | Cc1ccc(CC(CN)(Cc2ccc(C)cc2)C(=O)N[C@@H](CCCNC(=N)N)C(N)=O)cc1 [Compound 4h] | 147 µM (≈ 66.5 µg/mL) | 74 µM (≈ 33.5 µg/mL) |  |  |  |  |  |  | 74 µM (≈ 33.5 µg/mL) | no degradation could be detected | 147 µM (≈ 66.5 µg/mL) | 110 µM (≈ 49.8 µg/mL) | 110 µM (≈ 49.8 µg/mL) | >294 µM |  |  |  |  |  |  | 
4 | COc1cc(CC(CN)(Cc2cc(OC)cc(OC)c2)C(=O)N[C@@H](CCCNC(=N)N)C(N)=O)cc(OC)c1 [Compound 4m] | 259 µM (≈ 141 µg/mL) | 129 µM (≈ 70.3 µg/mL) |  |  |  |  |  |  | 259 µM (≈ 141 µg/mL) | no degradation could be detected | >259 µM | 259 µM (≈ 141 µg/mL) | 129 µM (≈ 70.3 µg/mL) | >259 µM |  |  |  |  |  |  | 
5 | N=C(N)NCCC[C@H](NC(=O)C(CN)(Cc1ccc(C(F)(F)F)cc1)Cc1ccc(C(F)(F)F)cc1)C(N)=O [Compound 4i] | 12.7 µM (≈ 7.12 µg/mL) | 12.7 µM (≈ 7.12 µg/mL) | 254 µM (≈ 142 µg/mL) |  |  |  |  |  | 3.2 µM (≈ 1.79 µg/mL) | no degradation could be detected | 12.7 µM (≈ 7.12 µg/mL) | 6.3 µM (≈ 3.53 µg/mL) | 12.7 µM (≈ 7.12 µg/mL) | >254 µM |  |  |  |  |  |  | 

The next lines start with results.

Row | MIC ([1]; ATTC 25923) | MIC ([3]; ATCC 27626) | MIC ([5]; ATTC 25922) | MIC [1, 6] | MIC [2, 7] | MIC [3, 8] | MIC [4, 9] | MIC [5, 11] | MIC MRSA ([2]; ATCC 33591) | proteolytic stability against α-chymotrypsin (α-chymotrypsin) | SMILES | MBC S. aureus ([1]; ATTC 25923) | MBC MRSA ([2]; ATCC 33591) | MBC MRSE ([3]; ATCC 27626) | MBC E. coli ([5]; ATTC 25922) | Therapeutic index S. aureus ([1]; EC50 RBC divided by MIC) | Therapeutic index MRSA ([2]; EC50 RBC divided by MIC) | Therapeutic index MRSE ([3]; EC50 RBC divided by MIC) | Therapeutic index P. aeruginosa ([4]; EC50 RBC divided by MIC) | EC50 (human red blood cells; [10]) | Therapeutic index E. coli ([5]; EC50 RBC divided by MIC) | other results
6 |  |  |  | 7.4 µM | 7.4 µM | 3.7 µM | 74 µM | 7.4 µM |  |  | CN(C)CCNC(=O)C(CN)(Cc1ccc(C(C)(C)C)cc1)Cc1ccc(C(C)(C)C)cc1 [Entry 6d] |  |  |  |  | 37 | 37 | 74 | 3.7 | 274 µM | 37 | 
7 |  |  |  | 15 µM | 15 µM | 7.2 µM | 289 µM | 15 µM |  |  | CN1CCN(C(=O)C(CN)(Cc2ccc(C(C)(C)C)cc2)Cc2ccc(C(C)(C)C)cc2)CC1 [Entry 5d] |  |  |  |  | 23 | 23 | 48 | 1.2 | 348 µM | 23 | 
8 |  |  |  | 3.8 µM | 3.8 µM | 3.8 µM | 23 µM | 7.7 µM |  |  | CC(C)(C)c1ccc(CC(CN)(Cc2ccc(C(C)(C)C)cc2)C(=O)NCCN)cc1 [Entry 7d] |  |  |  |  | 4.7 | 4.7 | 4.7 | 0.8 | 18 µM | 2.3 | 
